The target in experiment [1] is T1, IDO1 (Homo sapiens, UniProt P14902). Briefly: IDO1 enzymatic assay. Conditions: read-out: Enzyme IC50 IDO1. Format: biochemical. On the set-up: His tag (N); made in house; host or cells: E. coli. The gist of the method:
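Recombinant IDO1 carrying an N-terminal His tag and purified from E. coli was used at 50 nM with test compound, 1.3 mM D-tryptophan, 5 mM L-ascorbic acid, methylene blue and 0.4 mg/mL catalase in 50 mM potassium phosphate pH 7.5 containing 0.1% BSA. This mixture was incubated at 24 °C for 1.5 hours, after which N'-formylkynurenine formation was followed continuously at 321 nm for 1 hour and activity was taken as the slope. IC50 was derived from the enzyme activity remaining as compound concentration increased.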

Experiment [2] has as its target T2, cellular TDO2 in HEK293-TDO2 cells (Homo sapiens, UniProt P48775).
T2 construct: expressed in transfected cells; host or cells: HEK293 (ATCC), stably transfected
In words: 293-TDO2 cell-based assay (Kyn colorimetric). Conditions: 48 hours of incubation. The gist of the method: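 HEK293 cells stably expressing TDO2 (10000/well, phenol red-free DMEM, 10% FBS) were dosed 4 h after plating and incubated 48 h at 37° C. Supernatant Kyn was measured after TCA precipitation by 4-(dimethylamino)benzaldehyde colour at 480 nm. IC50 came from four-parameter logistic fits.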

In experiment [3] the target is T1, IDO1. Briefly: Hela cell-based IDO1 assay. Conditions: Hela cells. The gist of the method: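 Kynurenine was measured at 480 nm in trichloroacetic acid-deproteinised supernatant after adding 2% 4-(dimethylamino)benzaldehyde. This supernatant came from HeLa cells seeded at 8000 per well in 96-well plates in phenol red-free DMEM with 10% FBS and, from 4 hours after seeding, exposed for 48 hours at 37 °C, 5% CO2 to DMSO-diluted compound dilutions, IFN-γ (final 100 ng/mL) and 0.4 mM L-Trp. The resulting data were fitted with a four-parameter logistic model in XLfit. Potency was taken from those fits.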

The record followed here is patent publication US10882856B2 (BeiGene, Ltd., priority 2017, dated 2021).

T2 sequence (P48775 whole entry): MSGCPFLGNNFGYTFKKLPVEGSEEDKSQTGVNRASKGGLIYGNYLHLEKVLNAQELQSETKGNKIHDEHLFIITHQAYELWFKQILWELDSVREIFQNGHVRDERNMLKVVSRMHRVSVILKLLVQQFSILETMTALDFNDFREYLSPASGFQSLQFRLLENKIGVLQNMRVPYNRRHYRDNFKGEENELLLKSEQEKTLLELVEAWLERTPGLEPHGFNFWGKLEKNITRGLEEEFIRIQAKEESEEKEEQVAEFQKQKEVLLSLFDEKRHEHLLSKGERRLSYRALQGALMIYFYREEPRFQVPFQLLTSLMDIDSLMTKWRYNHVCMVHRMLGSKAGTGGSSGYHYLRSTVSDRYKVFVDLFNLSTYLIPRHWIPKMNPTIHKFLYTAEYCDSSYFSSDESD
T1 sequence (P14902 whole entry): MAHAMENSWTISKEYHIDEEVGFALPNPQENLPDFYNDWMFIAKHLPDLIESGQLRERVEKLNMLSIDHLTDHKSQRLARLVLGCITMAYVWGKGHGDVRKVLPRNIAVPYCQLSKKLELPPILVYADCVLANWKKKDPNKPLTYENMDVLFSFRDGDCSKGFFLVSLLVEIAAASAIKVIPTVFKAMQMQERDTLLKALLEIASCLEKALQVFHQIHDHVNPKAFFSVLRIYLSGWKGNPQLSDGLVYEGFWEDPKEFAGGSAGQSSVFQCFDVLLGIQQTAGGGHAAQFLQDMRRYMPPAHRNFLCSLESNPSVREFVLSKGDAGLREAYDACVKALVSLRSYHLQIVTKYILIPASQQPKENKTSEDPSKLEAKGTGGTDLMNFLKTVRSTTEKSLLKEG

For orientation: IC50 means the concentration needed to halve the response being measured. The term EC50 denotes the concentration needed to bring the measured effect to its halfway point. Consider `OC(c1c(C2CC2)ccc2cncn12)C1CCC(c2ccc(F)c3ccccc23)CC1` (stereo not drawn) [Example D137, (6-cyclopropylimidazo[1,5-a]pyridin-5-yl)(4-(4-fluoronaphthalen-1-yl)cyclohexyl)methanol], for which the IC50 in experiment [1] is 62 nM. The half-maximal effective concentration (EC50) in experiment [2] was greater than 10 µM; in experiment [3], 98 nM.
For `Oc1ccc(C2CCC(C(O)c3c(C4CC4)ccc4cncn34)CC2)c2ccccc12` (stereo not drawn) [Example D138, (6-cyclopropylimidazo[1,5-a]pyridin-5-yl)(4-(4-hydroxynaphthalen-1-yl)cyclohexyl)methanol], the IC50 in experiment [1] was determined as 62 nM. For the same compound, the EC50 in experiment [2] was greater than 10 µM; in experiment [3], 583 nM.
Taken in the same sequence, the figures for `COc1ccc(C2CCC(C(O)c3c(C4CC4)ccc4cncn34)CC2)c2ccccc12` (stereo not drawn) [Example D139, (6-cyclopropylimidazo[1,5-a]pyridin-5-yl)(4-(4-methoxynaphthalen-1-yl)cyclohexyl)methanol] were 75 nM, greater than 10 µM and 977 nM.
The corresponding values for `OC(c1c(C2CC2)ccc2cncn12)C1CCC(c2ccnc3ccccc23)CC1` (stereo not drawn) [Example D140, (6-cyclopropylimidazo[1,5-a]pyridin-5-yl)(4-(quinolin-4-yl)cyclohexyl)methanol] are 24 nM, greater than 10 µM and 42 nM.
The corresponding values for `OC(c1c(C2CC2)ccc2cncn12)C1CCC(c2cccc3ncccc23)CC1` (stereo not drawn) [Example D141, (6-cyclopropylimidazo[1,5-a]pyridin-5-yl)(4-(quinolin-5-yl)cyclohexyl)methanol] are 23 nM, greater than 10 µM and 21 nM.
Take `Oc1cccc(C2CCC(C(O)c3c(C4CC4)ccc4cncn34)CC2)c1` (stereo not drawn) [Example D142, 3-(4-((6-cyclopropylimidazo[1,5-a]pyridin-5-yl)(hydroxy)methyl)cyclohexyl)phenol]: the half-inhibitory concentration (IC50) in experiment [1] was 32 nM. Besides, the EC50 in experiment [2] is greater than 10 µM; in experiment [3], 40 nM.
For `COc1cccc(C2CCC(C(O)c3c(C4CC4)ccc4cncn34)CC2)c1` (stereo not drawn) [Example D143, (6-cyclopropylimidazo[1,5-a]pyridin-5-yl)(4-(3-methoxyphenyl)cyclohexyl)methanol], in experiment [1], the concentration for half-maximal inhibition (IC50) came to 33 nM. Besides, the EC50 is greater than 10 µM in experiment [2] and 62 nM in experiment [3].
As for `OC(c1c(C2CC2)ccc2cncn12)C1CCC(c2cc(F)cc(F)c2)CC1` (stereo not drawn) [Example D144, (6-cyclopropylimidazo[1,5-a]pyridin-5-yl)(4-(3,5-difluorophenyl)cyclohexyl)methanol], the half-maximal inhibitory concentration (IC50) in experiment [1] came to 42 nM. Moreover, the half-maximal effective concentration (EC50) is greater than 10 µM in experiment [2] and 96 nM in experiment [3].
The corresponding values for `OC(c1c(C2CC2)ccc2cncn12)C1CCC(c2ccc(F)c(F)c2F)CC1` (stereo not drawn) [Example D145, (6-cyclopropylimidazo[1,5-a]pyridin-5-yl)(4-(2,3,4-trifluorophenyl)cyclohexyl)methanol] are 54 nM, greater than 10 µM and 462 nM.
Taken in the same sequence, the figures for `COc1ccc(C2CCC(C(O)c3c(C4CC4)ccc4cncn34)CC2)c(F)c1` (stereo not drawn) [Example D146, (6-cyclopropylimidazo[1,5-a]pyridin-5-yl)(4-(2-fluoro-4-methoxyphenyl)cyclohexyl)methanol] were 28 nM, greater than 10 µM and 210 nM.
On to `COc1ccc(C2CCC(C(O)c3c(C4CC4)ccc4cncn34)CC2)c(Cl)c1` (stereo not drawn) [Example D147, (4-(2-chloro-4-methoxyphenyl)cyclohexyl)(6-cyclopropylimidazo[1,5-a]pyridin-5-yl)methanol], for which the IC50 in experiment [1] was determined as 43 nM. Moreover, the figures for the EC50 in experiment [2] and in experiment [3] were greater than 10 µM and 443 nM, respectively.
Consider `COc1ccc(C2CCC(C(O)c3c(C4CC4)ccc4cncn34)CC2)cc1Cl` (stereo not drawn) [Example D148, (4-(3-chloro-4-methoxyphenyl)cyclohexyl)(6-cyclopropylimidazo[1,5-a]pyridin-5-yl)methanol], for which, in experiment [1], the concentration for half-maximal inhibition (IC50) is 40 nM. Moreover, the EC50 in experiment [2] was greater than 10 µM; in experiment [3], 188 nM.
`OC(c1c(C2CC2)ccc2cncn12)C1CCC(c2cc(F)c(F)cc2F)CC1` (stereo not drawn) [Example D149, (6-cyclopropylimidazo[1,5-a]pyridin-5-yl)(4-(2,4,5-trifluorophenyl)cyclohexyl)methanol]: the IC50 in experiment [1] turned out to be 26 nM. For the same compound, the EC50 in experiment [2] is greater than 10 µM; in experiment [3], 492 nM.
Taken in the same sequence, the figures for `OC(c1c(C2CC2)ccc2cncn12)C1CCC(c2ccnc3ccc(F)cc23)CC1` (stereo not drawn) [Example D150, (6-cyclopropylimidazo[1,5-a]pyridin-5-yl)(4-(6-fluoroquinolin-4-yl)cyclohexyl)methanol] were 36 nM, greater than 10 µM and 37 nM.
Taken in the same sequence, the figures for `CC(=O)COc1ccc([C@H]2CC[C@H]([C@H](O)c3c(C4CC4)ccc4cncn34)CC2)cc1` [Example D151, 1-(4-((1 S,4r)-4-((S)-(6-cyclopropylimidazo[1,5-a]pyridin-5-yl)(hydroxy)methyl)cyclohexyl)phenoxy)propan-2-one] were 15 nM, greater than 10 µM and 33 nM.
Turning to `O=C(COc1ccc([C@H]2CC[C@H]([C@H](O)c3c(C4CC4)ccc4cncn34)CC2)cc1)c1ccccc1` [Example D152, 2-(4-((1S,4r)-4-((S)-(6-cyclopropylimidazo[1,5-a]pyridin-5-yl)(hydroxy)methyl)cyclohexyl)henoxy)-1-phenylethan-1-one], the IC50 in experiment [1] came out at 37 nM. For the same compound, the values for the EC50 in experiment [2] and in experiment [3] were greater than 10 µM and 118 nM, respectively.
With `NC(=O)c1ccc([C@H]2CC[C@H]([C@H](O)c3c(C4CC4)ccc4cncn34)CC2)cc1` [Example D153, 4-((1S,4r)-4-(S)-(6-cyclopropylimidazo[1,5-a]pyridin-5-yl(hydroxy)methyl)cyclohexyl)benzamide], the IC50 in experiment [1] stood at 11 nM. In addition, the EC50 was greater than 10 µM in experiment [2] and 145 nM in experiment [3].
Taken in the same sequence, the figures for `OC(c1c(C2CC2)ccc2cncn12)C1CCC(c2cc3ccccc3s2)CC1` (stereo not drawn) [Example D154, (4-(benzo[b]thiophen-2-yl)cyclohexyl)(6-cyclopropylimidazo[1,5-a]pyridin-5-yl)methanol] were 68 nM, greater than 10 µM and 648 nM.
Consider `OC(c1c(C2CC2)ccc2cncn12)C1CCC(c2csc3ccccc23)CC1` (stereo not drawn) [Example D155, (4-(benzo[b]thiophen-3-yl)cyclohexyl)(6-cyclopropylimidazo[1,5-a]pyridin-5-yl)methanol], for which the 50% inhibitory concentration (IC50) in experiment [1] came to 70 nM. Further, the EC50 is greater than 10 µM in experiment [2] and 87 nM in experiment [3].
For the compound `OC(c1c(C2CC2)ccc2cncn12)C1CCC(c2cccc(F)c2)CC1` (stereo not drawn) [Example D156, (6-cyclopropylimidazo[1,5-a]pyridin-5-yl)(4-(3-fluorophenyl)cyclohexyl)methanol], in experiment [1], the IC50 is 57 nM. In addition, the figures for the EC50 in experiment [2] and in experiment [3] were greater than 10 µM and 75 nM, respectively.
Take `OC(c1c(C2CC2)ccc2cncn12)C1CCC(c2ccc3ncccc3c2)CC1` (stereo not drawn) [Example D157, (6-cyclopropylimidazo[1,5-a]pyridin-5-yl)(4-(quinolin-6-yl)cyclohexyl)methanol]: in experiment [1], the IC50 was determined as 31 nM. Further, the EC50 was greater than 10 µM in experiment [2] and 75 nM in experiment [3].
For `CC(=O)c1ccc(C2CCC(C(O)c3c(C4CC4)ccc4cncn34)CC2)cc1` (stereo not drawn) [Example D158], the IC50 in experiment [1] came out at 58 nM. The results for the concentration for a half-maximal effect (EC50) in experiment [2] and in experiment [3] were greater than 10 µM and 836 nM, respectively.
Taken in the same sequence, the figures for `CC(=O)Nc1ccc([C@H]2CC[C@H]([C@H](O)c3c(C4CC4)ccc4cncn34)CC2)cc1` [Example D159, N-(4-((1S,4r)-4-((S)-(6-cyclopropylimidazo[1,5-a]pyridin-5-yl)hydroxy)methylcyclohexyl)phenyl)acetamide] were 12 nM, greater than 10 µM and 80 nM.
The corresponding values for `NC(=O)Nc1ccc([C@H]2CC[C@H]([C@H](O)c3c(C4CC4)ccc4cncn34)CC2)cc1` [Example D160, 1-(4-((1S,4r)-4-((S)-(6-cyclopropylimidazo[1,5-a]pyridin-5-yl)(hydroxy)methyl)cyclohexyl)phenyl)urea] are 15 nM, greater than 10 µM and 128 nM.
The corresponding values for `OC(c1c(C2CC2)ccc2cncn12)C1CCC(c2ccc3cccnc3c2)CC1` (stereo not drawn) [Example D161, (6-cyclopropylimidazo[1,5-a]pyridin-5-yl)(4-(quinolin-7-yl)cyclohexyl)methanol] are 34 nM, greater than 10 µM and 263 nM.
In the case of `OC(c1c(C2CC2)ccc2cncn12)C1CCC(c2ccc(F)c3ncccc23)CC1` (stereo not drawn) [Example D163, (6-cyclopropylimidazo[1,5-a]pyridin-5-yl)(4-(8-fluoroquinolin-5-yl)cyclohexyl)methanol], the IC50 in experiment [1] is 40 nM. The results for the EC50 in experiment [2] and in experiment [3] were greater than 10 µM and 48 nM, respectively.
